Measurements taken from patent US20060241082A1, “Modulating vesicular monoamine transporter trafficking and function: a novel approach for the treatment of parkinson's disease” (priority 2002, published 2006).
Structures can show the parent of a compound that is named as a salt.

Columns and labels:
DAT [1] = target: T1, DAT (Rattus norvegicus, UniProt P23977); experiment: In vitro preincubation of striatal synaptosomes with MDMA: [3H]DA uptake and WIN35428 binding; format: biochemical; conditions: 10 μM inhibitor 5 min, then 10 μM MDMA 30 min at 37° C.
T1 construct: from tissue; host or cells: striatum of male Sprague-Dawley rats (synaptosomes, P2)
Procedure: (§1) Uptake of [^3H]DA was determined in striatal synaptosomes prepared according to the method described by Kokoshka et al. (1998). Briefly, fresh striatal tissue was homogenized in cold 0.32 M sucrose and centrifuged (800×g for 12 min; 4° C.). The supernatant (S1) was then centrifuged (22,000×g for 15 min; 4° C.), and the resulting pellet (P2) was resuspended in ice-cold modified Kreb's buffer (in mM: 126 NaCl, 4.8 KCl, 1.3 CaCl2, 16 sodium phosphate, 1.4 MgSO4, 11 dextrose, 1-ascorbic acid, pH 7.4). Assays were conducted in Kreb's buffer. Each assay tube contained synaptosomal tissue (i.e., resuspended P2 obtained from 1.5 mg of original wet weight striatal tissue) and 1 μM pargyline. Nonspecific values were determined in the presence of 100 μM cocaine. After preincubation of assay tubes for 10 min at 37° C., assays were initiated by the addition of [^3H]DA (0.5 nM final concentration). Samples were incubated at 37° C. for 3 min. Samples were then filtered through Whatman GF/B filters (Brandel, Gaithersburg, Md.) soaked previously in 0.05% polyethylenimine. Filters were washed rapidly 3 times with 3 ml of ice-cold 0.32 M sucrose using a Brandel filtering manifold. […] Remaining resuspended P2 samples were assayed for protein concentrations according to the method of Lowry et al. (1951). In MDMA preincubation experiments, samples were preincubated with 10 μM MDMA for 30 min at 37° C. After 30 min, resuspended P2 fractions were “washed” by centrifugation (22,000×g for 15 min; 4° C.). The resulting pellet (P3) was then resuspeded in ice-cold Kreb's buffer, and once again centrifuged (22,000×g for 15 min; 4° C.) to obtain a P4 pellet that was subsequently resuspended and assayed. [^3H]WIN35428 binding (0.5 nM final concentration) was conducted in phosphate-buffered 0.32 M sucrose, pH 7.4, with synaptosomes obtained from 2 mg (original wet weight) of striatal tissue per reaction tube, and samples were incubated on ice for 2 hr. Samples were then filtered through Whatman GF/B filters (Brandel, Gaithersburg, Md.) soaked previously in 0.05% polyethylenimine. Filters were washed rapidly 3 times with 3 ml of ice-cold 0.32 M sucrose using a Brandel filtering manifold. […] Remaining resuspended P2 samples were assayed for protein concentrations according to the method of Lowry et al. (1951).

VMAT-2 [2] = experiment: VMAT-2 immunoreactivity in striatal subcellular fractions (P2, P3, S3) of treated rats (Western blot); format: in vivo, rat; conditions: 1 h
Procedure: Striatal synaptosomes were prepared from rats decapitated 1 h after treatment as previously described (Fleckenstein et al., 1997). Briefly, striatal tissue was homogenized in cold 0.32 M sucrose and centrifuged (800×g for 12 min; 4° C.). The supernatant (S1) was then centrifuged (22,000×g for 15 min; 4° C.) and the resulting pellet (P2, synaptosomal fraction) was resuspended at 50 mg original wet weight/ml in cold water and a portion saved for western blot analysis. The remainder of the synaptosomal sample was centrifuged for 20 min at 22,000×g (4° C.) to pellet lysed synaptosomal membranes (P3, synaptosomal membrane fraction), which were then resuspended at 50 mg original wet weight/ml and saved for western blot analysis. Prior to resuspension of the plasmalemmal membrane fraction the supernatant (S3, vesicle-enriched fraction) was removed and saved for western blot analysis.
Binding of VMAT-2 antibody was performed using 60 μl aliquots of synaptosomal (P2), synaptosomal membrane (P3), or vesicle-enriched (S3) preparations. Each aliquot was added to 20 μl of loading buffer (final concentration: 2.25% sodium dodecyl sulfate, 18% glycerol, 180 mM Tris base (pH 6.8), 10% β-mercapto-ethanol and bromophenol blue), boiled for 10 min, and loaded on a 10% sodium dodecyl sulfate-polyacrylamide gel. Following electrophoresis, samples were transferred to polyvinlylidene difluoride membrane, blocked with 5% nonfat dry milk in Tris-buffered saline with tween (250 mM NaCl, 50 mM Tris pH 7.4 and 0.05% Tween 20), and probed with the VMAT-2 antibody (provided by J.W.H.). Bound antibody was visualized with HRP-conjugated goat anti-rabbit antibody, and antigen-antibody complexes were visualized by chemiluminescence. Multiple exposures of blots were obtained to ensure development within the linear range of the film. Bands on blots were quantified by densitometry using Kodak 1D image-analysis software.
Fresh striatal tissue was homogenized in ice-cold 0.32 M sucrose and centrifuged (800×g for 12 min; 4° C.). […] Resuspended tissue was aliquoted into two test tubes. One aliquot was centrifuged (22,000×g for 10 min; 4° C.) to separate plasmalemmal membranes from the synaptic vesicle-enriched fraction. The resulting supernatant (S3) contained the vesicular subcellular fraction of interest, and the pellets (P3; plasmalemmal membrane fraction) were resuspended in cold distilled deionized water.
VMAT-2 antibody was purchased from Chemicon (Temecula, Calif.; AB1767). Binding of VMAT-2 antibody was performed using 60 μl of whole synaptosomal, plasmalemmal membrane or vesicle subcellular fractions. Samples were added to 20 μl of loading buffer (final concentration: 2.25% SDS, 18% glycerol, 180 mM Tris Base (pH 6.8), 10% […] and bromophenol blue). Approximately 60 μg protein of the whole synaptosomal fraction, 40 μg protein of the plasmalemmal membrane fraction or 20 μg protein of the vesicle subcellular fraction was loaded per well in a 10% SDS-polyacrylamide gel. Following electrophoresis, samples were transferred to polyvinylidene difluoride hybridization transfer membrane (New England Nuclear (NEN), Boston, Mass.). All subsequent incubation steps were performed at room temperature while shaking. Each membrane was first blocked for 2 h in 100 ml of tris buffer saline with tween (TBST; 250 mM NaCl, 50 mM tris pH 7.4 and 0.05% tween 20) containing 5% nonfat dry milk. Each membrane was then incubated with anti-VMAT-2 antibody (1:4000 dilution) in 13 ml of TBST with 5% milk for 1 h and then washed 5 times (2×1 min wash; 3×5 min wash) in 70 ml TBST with 5% milk.

VMAT-2 [3] = target: VMAT-2 (Mus musculus, UniProt Q8BRU6); experiment: Vesicular [3H]dopamine uptake in striatal vesicles prepared from treated mice; format: in vivo; conditions: antagonist 2 mg/kg i.p. prior to each methamphetamine injection (4 x 10 mg/kg s.c.), 1 h
Procedure: (A. E. Fleckenstein, et al., J. Pharmacol Exp Ther. (1997) 282:834-838). Briefly, fresh tissue was homogenized in ice-cold 0.32 M sucrose. The homogenate was centrifuged (800×g for 12 min; 4° C.), and the supernatant (S1) was carefully removed and centrifuged (22,000×g for 15 min; 4° C.) to obtain the synaptosomal-containing pellet (P2). The resulting P2 were resuspended and homogenized in ice-cold distilled deionized water. Osmolarity was restore by addition 25 mM HEPES and 100 mM potassium tartrate (final concentration; pH 7.5 at 4° C. respectively). […] The resultant S3 removed and MgSO4 added (final concentration of [1 mM] pH 7.5 at 4° C.) and centrifuged at 100,000×g for 45 min. The final P4 were resuspended at 50 mg/ml (original tissue wet weight).

VMAT-2 [4] = target: T2, VMAT-2 (Rattus norvegicus, UniProt Q01827); format: in vivo; design: purified striatal vesicles prepared from treated rats; from tissue; host or cells: striatum of male Sprague-Dawley rats (synaptic vesicles; P2, P3, S3 fractions)
Procedure: Osmolarity was restored by addition of N-(2-hydroxyethyl)-piperazine-N′-2-ethanesulfonic acid (HEPES) and potassium tartrate 25 mM and 100 mM (final concentrations; pH 7.5 at 4° C.), respectively.

VMAT-2 [5] = target: T2, VMAT-2; experiment: [3H]DHTBZ binding in purified striatal vesicles prepared from treated rats; conditions: rats
Procedure: Synaptic vesicles were obtained from synaptosomes prepared from rat striatum as described above. Synaptosomes were resuspended and homogenized in cold distilled deionized water. Osmolarity was restored by addition of HEPES and potassium tartrate 245 and 100 mM (final concentrations; pH 7.5), respectively. Samples were centrifuged for 20 min at 20,000×g (4° C.) to remove lysed synaptosomal membranes. MgSO4 (1 mM, final concentration) was added to the supernatant, which was then centrifuged for 45 min at 100,000×g (4° C.). The resulting vesicular pellet was resuspended in wash buffer at a concentration of 50 mg/ml (original tissue weight). […] Binding of [^3H]DHTBZ was performed as described by Teng et al. (1998). Briefly, 200 μl of the synaptic vesicle preparation (˜6 μg of protein) was incubated in wash buffer in the presence of [^3H]DHTBZ (2 nM final concentration) for 10 min at 25° C. The reaction was terminated by addition of 1 ml of cold wash buffer and rapid filtration through Whatman GF/F filters soaked in 0.5% polyethylenimine. Filters were washed three times with ice-cold wash buffer. Nonspecific binding was determined by coincubation with 20 μM tetrabenazine. All protein concentrations were determined by a BioRad protein assay (Bio-Rad, Richmond, Calif.).
Binding of [^3H]DHTBZ was performed as described by Teng et al. (1998). Briefly, 200 μl (˜6 μg protein) of the synaptic vesicle preparation was incubated in wash buffer in the presence of [^3H]DHTBZ (2 nM final concentration except in kinetic analyses wherein 0.25-500 nM DHTBZ was employed) for 10 m in at 25° C. The reaction was terminated by addition of 1 ml cold wash buffer and rapid filtration through Whatman GF/F filters soaked in 0.5% polyethylenimine. Filters were washed three times with ice-cold wash buffer. Radioactivity trapped in filters was counted using a liquid scintillation counter. Nonspecific binding was determined by coincubation with 20 μM TBZ. All protein concentrations were determined by a Bio-Rad protein assay (Bio-Rad Inc.).
Binding of[^3H]DHTBZ was performed as described by Teng et al. (1998). Briefly, 200 μl (˜5 μg protein) of the synaptic vesicle preparation was incubated in wash buffer in the presence of [^3H]DHTBZ (2 nM final concentration except in kinetic analyses wherein 0.25-500 nM DHTBZ was employed) for 10 m in at 25° C. The reaction was terminated by addition of 1 ml cold wash buffer and rapid filtration through Whatman GF/F filters soaked in 0.5% polyethylenimine. Filters were washed three times with ice-cold wash buffer. Radioactivity trapped in filters was counted using a liquid scintillation counter. Nonspecific binding was determined by coincubation with 20 μM TBZ. All protein concentrations were determined by a Bio-Rad protein assay (Bio-Rad Inc.).

[6] = Vesicular DA content in purified striatal vesicles of treated rats; format: in vivo, rat; conditions: rats, reserpine 10 mg/kg i.p. 6 and 1 h before decapitation
Procedure: Purified striatal vesicles were prepared as described above. The resulting vesicular pellet was sonicated for approximately 5 sec in cold tissue buffer (0.05 M sodium phosphate/0.03 M citric acid buffer with 15% methanol (v/v); pH 2.5) at a concentration of 100 mg/ml (original wet weight of tissue), and centrifuged for 15 min at 22,000×g. Tissue pellets were retained and protein was determined according to the method of Lowry et al. (1951). 40 μl of supernatant was injected onto a high performance liquid chromatograph system coupled to an electrochemical detector (+0.73 V) for separation and quantitation of DA levels using the method of Chapin et al. (1986).

[7] = Striatal tissue DA content of treated rats (HPLC); format: in vivo, rat
Procedure: On the day of the assay, frozen tissue samples were thawed, sonicated for 3-5 s in tissue buffer (0.05 M sodium phosphate/0.03 M citric acid buffer with 15% methanol (v/v); pH 2.78), and centrifuged for 15 min at 22,000×g. Tissue pellets were retained and protein determined according to the method of Lowry et al. (1951). The supernatant was centrifuged a second time for 15 min at 22,000×g. 20 μl of supernatant were injected onto a high performance liquid chromatograph system coupled to an electrochemical detector (+0.73 V) for separation and quantitation of dopamine levels using the method of Chapin et al. (1986).

[8] = target: T3, plasmalemmal DA transporter (DAT) (Rattus norvegicus, UniProt P23977); experiment: Plasmalemmal [3H]DA uptake in striatal synaptosomes prepared from treated rats; format: in vivo; conditions: αMT 150 mg/kg i.p. 5 and 1 h prior to and 3 h after first MDMA injection, MDMA 4 x 10 mg/kg s.c.
T3 construct: from tissue; host or cells: striatum of male Sprague-Dawley rats (synaptosomes, P2)
Procedure: Uptake of [^3H]DA was determined in striatal synaptosomes prepared according to the method described by Kokoshka et al. (1998). Briefly, fresh striatal tissue was homogenized in cold 0.32 M sucrose and centrifuged (800×g for 12 min; 4° C.). The supernatant (S1) was then centrifuged (22,000×g for 15 min; 4° C.), and the resulting pellet (P2) was resuspended in ice-cold modified Kreb's buffer (in mM: 126 NaCl, 4.8 KCl, 1.3 CaCl2, 16 sodium phosphate, 1.4 MgSO4, 11 dextrose, 1-ascorbic acid, pH 7.4). Assays were conducted in Kreb's buffer. Each assay tube contained synaptosomal tissue (i.e., resuspended P2 obtained from 1.5 mg of original wet weight striatal tissue) and 1 μM pargyline. Nonspecific values were determined in the presence of 100 μM cocaine. After preincubation of assay tubes for 10 min at 37° C., assays were initiated by the addition of [^3H]DA (0.5 nM final concentration). Samples were incubated at 37° C. for 3 min. Samples were then filtered through Whatman GF/B filters (Brandel, Gaithersburg, Md.) soaked previously in 0.05% polyethylenimine. Filters were washed rapidly 3 times with 3 ml of ice-cold 0.32 M sucrose using a Brandel filtering manifold. […] Remaining resuspended P2 samples were assayed for protein concentrations according to the method of Lowry et al. (1951). In MDMA preincubation experiments, samples were preincubated with 10 μM MDMA for 30 min at 37° C. After 30 min, resuspended P2 fractions were “washed” by centrifugation (22,000×g for 15 min; 4° C.). The resulting pellet (P3) was then resuspeded in ice-cold Kreb's buffer, and once again centrifuged (22,000×g for 15 min; 4° C.) to obtain a P4 pellet that was subsequently resuspended and assayed. [^3H]WIN35428 binding (0.5 nM final concentration) was conducted in phosphate-buffered 0.32 M sucrose, pH 7.4, with synaptosomes obtained from 2 mg (original wet weight) of striatal tissue per reaction tube, and samples were incubated on ice for 2 hr. Samples were then filtered through Whatman GF/B filters (Brandel, Gaithersburg, Md.) soaked previously in 0.05% polyethylenimine. […]

DAT [9] = target: T1, DAT; experiment: [3H]WIN35428 binding in striatal synaptosomes prepared from treated rats; format: in vivo; conditions: αMT 150 mg/kg i.p., MDMA 4 x 10 mg/kg s.c.
Procedure: as §1

T2 sequence (Q01827 whole entry): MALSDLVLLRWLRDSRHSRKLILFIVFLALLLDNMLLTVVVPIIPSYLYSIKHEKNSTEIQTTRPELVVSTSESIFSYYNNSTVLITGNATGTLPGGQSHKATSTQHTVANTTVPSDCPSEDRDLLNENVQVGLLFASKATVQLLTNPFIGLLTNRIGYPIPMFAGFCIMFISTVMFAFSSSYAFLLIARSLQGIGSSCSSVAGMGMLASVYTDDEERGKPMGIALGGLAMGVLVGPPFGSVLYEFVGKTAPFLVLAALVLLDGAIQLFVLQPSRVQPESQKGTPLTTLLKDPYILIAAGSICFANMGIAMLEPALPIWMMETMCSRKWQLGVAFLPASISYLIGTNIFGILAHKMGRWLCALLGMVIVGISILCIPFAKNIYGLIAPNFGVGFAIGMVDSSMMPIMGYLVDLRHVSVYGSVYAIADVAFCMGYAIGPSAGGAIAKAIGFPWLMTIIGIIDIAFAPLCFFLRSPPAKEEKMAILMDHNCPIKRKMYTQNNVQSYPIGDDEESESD
T1 sequence (P23977 whole entry): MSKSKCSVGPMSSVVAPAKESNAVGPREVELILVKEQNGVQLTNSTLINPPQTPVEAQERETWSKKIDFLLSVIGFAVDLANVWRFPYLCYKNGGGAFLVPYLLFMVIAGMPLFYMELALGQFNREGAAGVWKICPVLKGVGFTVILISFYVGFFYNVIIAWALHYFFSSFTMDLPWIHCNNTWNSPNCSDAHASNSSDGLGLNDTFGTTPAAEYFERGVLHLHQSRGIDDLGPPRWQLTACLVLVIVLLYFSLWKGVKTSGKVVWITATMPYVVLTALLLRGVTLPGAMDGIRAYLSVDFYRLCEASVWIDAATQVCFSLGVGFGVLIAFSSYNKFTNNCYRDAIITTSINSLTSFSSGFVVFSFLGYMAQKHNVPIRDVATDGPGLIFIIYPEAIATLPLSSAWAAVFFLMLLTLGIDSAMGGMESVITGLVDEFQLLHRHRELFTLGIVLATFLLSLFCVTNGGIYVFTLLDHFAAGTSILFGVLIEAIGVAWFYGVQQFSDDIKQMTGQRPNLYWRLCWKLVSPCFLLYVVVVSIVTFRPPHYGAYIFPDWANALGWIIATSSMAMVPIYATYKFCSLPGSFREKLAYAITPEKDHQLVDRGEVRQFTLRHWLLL
VMAT-2 (Mus musculus, UniProt Q8BRU6), sequence (Q8BRU6 whole entry): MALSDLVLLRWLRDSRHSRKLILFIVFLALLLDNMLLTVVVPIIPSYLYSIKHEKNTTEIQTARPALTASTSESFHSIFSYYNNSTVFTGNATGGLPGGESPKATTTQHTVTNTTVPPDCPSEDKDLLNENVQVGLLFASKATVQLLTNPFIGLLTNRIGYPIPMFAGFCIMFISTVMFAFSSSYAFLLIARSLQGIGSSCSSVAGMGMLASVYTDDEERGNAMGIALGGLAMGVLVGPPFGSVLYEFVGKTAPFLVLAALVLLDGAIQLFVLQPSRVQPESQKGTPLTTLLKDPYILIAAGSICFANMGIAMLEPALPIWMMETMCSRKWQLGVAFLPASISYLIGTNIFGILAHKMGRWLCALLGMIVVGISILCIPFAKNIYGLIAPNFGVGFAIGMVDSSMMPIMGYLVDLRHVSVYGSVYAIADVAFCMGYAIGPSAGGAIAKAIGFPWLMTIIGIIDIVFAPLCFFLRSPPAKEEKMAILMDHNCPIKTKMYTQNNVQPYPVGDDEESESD
T3 sequence (P23977 whole entry): as the sequence (P23977 whole entry) above

CCCCCCCCCCCCC(=O)N1CCCCC1CNC(=O)[C@@H](N)CCCCN.Cl.Cl (some centres unmarked) [NPC15437]
effect of PKC inhibitor pretreatment on the MDMA-induced deficit in vitro (DAT [1]): attenuated

CC(=O)O.Cn1cc(C2=C(c3cn(CCCN)c4ccccc34)C(=O)NC2=O)c2ccccc21 [Ro31-7549, 2-[1-3(Aminopropyl)indol-3-yl]-3(1-methylindol-3-yl)maleimide, acetate]
effect of PKC inhibitor pretreatment on the MDMA-induced deficit in vitro (DAT [1]): attenuated

COC(=O)[C@H]1[C@@H](OC(=O)c2ccccc2)C[C@@H]2CC[C@H]1N2C [cocaine, (−)cocaine hydrochloride]
decrease in VMAT-2 immunoreactivity in the P3 (synaptosomal membrane) fraction (VMAT-2 [2]; cocaine 30 mg/kg i.p. single): 33%
increase in VMAT-2 immunoreactivity in the S3 (vesicle-enriched) fraction (VMAT-2 [2]; cocaine 30 mg/kg i.p. single): 80%

CCc1cc(Cl)c(OC)c(C(=O)NC[C@@H]2CCCN2CC)c1O [eticlopride, (−)-Eticlopride hydrochloride]
effect of antagonist pretreatment on the methamphetamine-induced decrease in vesicular dopamine uptake (VMAT-2 [3]): attenuated
effect of antagonist pretreatment on the METH-induced decrease in vesicular [3H]DA uptake (VMAT-2 [4]; rat, in vivo): attenuated
effect of eticlopride on the MDMA-induced decrease in vesicular DA uptake (VMAT-2 [4]; rat, in vivo): attenuated
vesicular [3H]DA uptake after antagonist per se (VMAT-2 [4]; rats, antagonist 0.5 mg/kg i.p.): did not affect
effect of antagonist pretreatment on the MPD-induced increase in vesicular [3H]DA uptake (VMAT-2 [4]; rats, antagonist 0.5 mg/kg i.p. 15 min prior to MPD 40 mg/kg s.c., 1 h): attenuated
effect of antagonist pretreatment on the MPD-induced increase in VMAT-2 immunoreactivity in the vesicular subcellular fraction (VMAT-2 [2]; antagonist 0.5 mg/kg i.p. 15 min prior to MPD 40 mg/kg s.c.): completely prevented
[3H]DHTBZ binding after antagonist per se (VMAT-2 [5]; antagonist 0.5 mg/kg i.p.): did not affect
effect of antagonist pretreatment on the MPD-induced increase in [3H]DHTBZ binding (VMAT-2 [5]; antagonist 0.5 mg/kg i.p. 15 min prior to MPD 40 mg/kg s.c., 1 h): completely prevented

COC(=O)[C@H]1[C@H]2C[C@@H]3c4[nH]c5cc(OC)ccc5c4CCN3C[C@H]2C[C@@H](OC(=O)c2cc(OC)c(OC)c(OC)c2)[C@@H]1OC [reserpine]
striatal vesicular DA levels [6]: below the detection limit
depletion in total striatal tissue DA levels ([7]; rats, reserpine 10 mg/kg i.p. 6 and 1 h before decapitation): > 98%

CC(N)(Cc1ccc(O)cc1)C(=O)O.Cl (stereo not drawn) [αMT, α-methyl-p-tyrosine hydrochloride]
effect of αMT pretreatment on the MDMA-induced decrease in DAT activity [8]: did not affect
effect of αMT pretreatment on the MDMA-induced deficit in WIN35428 binding (DAT [9]): did not prevent
striatal DA levels ([7]; αMT-treated rats, 150 mg/kg i.p.): 10.1±2.0 pg/1 μg protein
